Data on four compounds can be found in patent US20240174728A1, “A USE OF A POLYPEPTIDE COMPOUND IN THE PREPARATION OF DRUGS FOR PREVENTING OR TREATING INFLAMMATORY BOWEL DISEASES AND RELATED INTESTINAL FIBROSIS” (Shenzhen Turier Biotech Co., Ltd., priority 2021, published 2024).

In assay [1] the test system is DSS induced acute intestinal fibrosis model of mouse. Briefly: DSS induced acute intestinal fibrosis model of mouse (Example 2). Type of assay: in vivo, Balb/c mice. The settings on record: 3% DSS Day 1-7, compared with model group; for blue staining area of colon tissues, area ratio of blue collagen fibers to colon tissue in Masson staining (FIG. 4B): #P≤0.05; for content of serum IL-6 (FIG. 7) / content of serum MMP-12 (FIG. 7) / collagenous fiber of colon tissues, Masson stained slice (FIG. 4A) / colon Ly-6g+ cells (neutrophile granulocyte infiltration), immunohistochemical staining (FIG. 6) / colon mucous layer α-SMA protein expression, immunohistochemical staining (FIG. 5): 120 μg/kg s.c. once/day; for content of serum IL-6 (FIG. 7) / content of serum MMP-12 (FIG. 7): 9th day serum, ##P≤0.01. An excerpt: The DSS in this example is purchased from MP Biomedicals (CAS No.: 9011-18-1), and the positive control compound 6-thioguanine (6-TG) is a compound based on prior art and is purchased from Shanghai Aladdin Biochemical Technology Co., Ltd. (CAS No.: 154-42-7).
(§1) After 7 days of adaptive feeding, 114 Balb/c mice of 6-8 weeks age (purchased from Guangdong Medical Laboratory Animal Center, with weight approx. 16-20 g) are subjected to the experiment. Then randomly put the mice into 19 groups, with 6 mice in each group. The groups are normal group, model group, 6-TG group and polypeptide compound groups 1-16.
Model the 19 groups of mice and administer the drug to them for 8 days. In the 8 days, the normal group is given normal drinking water and is given subcutaneous injection of PBS once every day. From Day 1 to Day 7, the model group drinks 3% DSS and is given subcutaneous injection of PBS once every day. On Day 8, 3% DSS is replaced with normal drinking water and subcutaneous injection of PBS is given once. From Day 1 to Day 7, the 6-TG group drinks 3% DSS and is given 2 mg/kg 6-TG by the means of gavage once every day. On Day 8, 3% DSS is replaced with normal drinking water and 2 mg/kg 6-TG is given by the means of gavage once. From Day 1 to Day 7, the polypeptide compound groups 1-16 drink 3% DSS and are given subcutaneous injection of 120 μg/kg polypeptide compounds 1-16 once every day. On Day 8, 3% DSS is replaced with normal drinking water and subcutaneous injection of 120 μg/kg polypeptide compounds 1-16 is given once.
In the drug administration period, the randomly selected polypeptide compound groups 3, 8, 11, 12, 13 and 14 and the normal group, model group and 6-TG group are used for testing, and the body weight, feces consistency and feces OB of the mice are recorded every day. The GraphPad Prism 8.3.0 software is used to plot the data into a diagram. Feces OB is measured by the benzidine method.
On the 9th day, all mice are killed. The serums and colon tissues of the mice are collected. The colon and cecum of the mice are removed together. The colon length is measured. The GraphPad Prism 8.3.0 software is used to plot the data into a diagram.
The serums of the mice from the randomly selected polypeptide compound groups 3, 8, 11, 12, 13 and 14 of the present invention and the normal group and model group are used for cytokine test.
The colons of the mice from the randomly selected polypeptide compound groups 3, 8, 11, 12, 13 and 14 and the normal group, model group and 6-TG group in the present invention are taken. Approx. 5 mm of intestinal segment is taken from the distal end of each colon and is fixed in 10% formalin. The specimens are fixed, dehydrated, wrapped in paraffin and sliced (5 μm). Then tissue HE staining, Masson staining, α-SMA α-SMA protein immunohistochemical staining and Ly-6g protein immunohistochemical staining are completed.

Assay [2] relates to DSS induced chronic intestinal fibrosis model of mouse. Briefly: DSS induced chronic intestinal fibrosis model of mouse (Example 3, three cycles). It counts as in vivo, Balb/c mice. The settings on record: 2% DSS 5 days then water 2 weeks, 3 cycles, 120 μg/kg s.c. once/day, compared with model group; for blue staining area of colon tissues, area ratio of blue collagen fibers to colon tissue in Masson staining (FIG. 11B): #P≤0.05, ##P≤0.01; for content of serum IL-6 (FIG. 13) / content of serum MMP-8 (FIG. 13): serum at end of three cycles.
From the text: as §1
In the whole process, the normal group is given normal drinking water and is given subcutaneous injection PBS once every day. The model group is first given 2% DSS for 5 days and then given normal drinking water for 2 weeks. This is 1 cycle. The cycle is done 3 times. Subcutaneous injection of PBS is given once every day. The 6-TG group is first given 2% DSS for 5 days and then given normal drinking water for 2 weeks. This is 1 cycle. The cycle is done 3 times. 2 mg/kg 6-TG is given by the means of gavage once every day. The polypeptide compound groups 1-16 are first given 2% DSS for 5 days and then given normal drinking water for 2 weeks. This is 1 cycle. The cycle is done 3 times. Subcutaneous injection of 120 μg/kg polypeptide compounds 1-16 is given once every day.
During the administration period, the polypeptide compound groups 3, 8, 11, 12, 13 and 14 and the normal group, model group and 6-TG group are randomly selected, and the body weight, feces consistency and feces OB of the mice are recorded every day. The GraphPad Prism 8.3.0 software is used to plot the data into a diagram.
After completion of the 3rd cycle, the mice are dissected. The serums and colon tissues of the mice are collected. The colon and cecum are removed together. The colon length is measured. The GraphPad Prism 8.3.0 software is used to plot the data into a diagram.
The serums of the mice from the randomly selected polypeptide compound groups 3, 8, 11, 12, 13 and 14 and the normal group and model group of the present invention are used for cytokine test.
The colons of the mice from the randomly selected polypeptide compound groups 3, 8, 11, 12, 13 and 14 and the normal group and model group in the present invention are taken. Approx. 5 mm of intestinal segment is taken from the distal end of each colon and is fixed in 10% formalin. The specimens are fixed, dehydrated, wrapped in paraffin and sliced (5 μm). Then tissue HE staining, Masson staining and Fibronectin protein immunohistochemical staining are completed.

[3] abbreviates: polypeptide 120 μg/kg s.c. or 6-TG 2 mg/kg p.o. once/day, Day 1 to Day 8.
Where [4] appears, read: polypeptide 120 μg/kg s.c. or 6-TG 2 mg/kg p.o. once/day.

Starred links: 1 amine or outer side, 2 acyl side, 3 side chain; linkers in the order of their positions; H or OH if unused. Non-standard residues stand in square brackets, D forms with d. Groups on a side chain read outwards from the residue. Primed or numbered codes have the meaning given here. No end group written: not given here. *: point of attachment. C20 diacid = O=C(O)CCCCCCCCCCCCCCCCCCC(=O)*; γGlu = O=C(O)[C@H](CCC(=O)[*:2])N[*:1]; Iva = CC[C@](C)(N)C(=O)O; PEG2′ = not defined here; Aib = CC(C)(N)C(=O)O

Take `Nc1nc2nc[nH]c2c(=S)[nH]1` [Compound 6-TG, 6-thioguanine, reference compound]: in assay [1] (setting [3]), the “body weight (daily conditions, FIG. 2)” value is on record as “decrease the body weight”; the “loose feces and hematochezia conditions (feces consistency and feces OB scores, FIG. 2)” value was “noticeably improve the loose feces and hematochezia conditions”. Moreover, in assay [1] (setting [4]), the “colon tissue morphology, HE stained slice (FIG. 3)” value (from here on “colon tissue morphology … (FIG. 3)”) is “relatively improved” and the “blue staining area of colon tissues, area ratio of blue collagen fibers to colon tissue in Masson staining (FIG. 4B)” value was “not improved”.

Turning to “His-(D-Ser)-Gln-Gly-Thr-Phe-Thr-Ser-Asp-Lys(Gly-Gly-Ser-Gly-Ser-Gly-γGlu-CO(CH2)18-COOH)-Ser-Lys-Tyr-Leu-Glu-Aib-Lys-Ala-Ala-Gln-Asp-Phe-Val-Glu-Trp-Leu-Lys-Ala-Gly-Gly-Pro-Ser-Ser-Gly-Ala-Pro-Pro-Pro-Ser (HXQGTFTSDKSKYLEXKAAQDFVEWLKAGGPSSGAPPPS; D-Ser, Aib, γGlu-C20 diacid lipidation; Compound 13; (2)..(2) X=D-Ser; (10)..(10) A side chain of Lys is linked to -Gly-Gly-Ser-Gly-Ser-Gly-AGlu-CO(CH2)18-COOH; (16)..(16) X=Aib)”, in assay [1], the “content of serum IL-6 (FIG. 7)” value is “clearly decreases”; the “content of serum MMP-12 (FIG. 7)” value was “clearly decreases”; the “collagenous fiber of colon tissues, Masson stained slice (FIG. 4A)” value (from here on “collagenous fiber of colon tissues … (FIG. 4A)”) is on record as “noticeably decrease”; the “colon Ly-6g+ cells (neutrophile granulocyte infiltration), immunohistochemical staining (FIG. 6)” value (shortened to “colon Ly-6g+ cells”) is “clearly decrease”. In assay [1], the “colon mucous layer α-SMA protein expression, immunohistochemical staining (FIG. 5)” value was “clearly decreased”. In assay [1] (setting [4]), the “colon tissue morphology … (FIG. 3)” value is “become intact” and the “blue staining area of colon tissues, area ratio of blue collagen fibers to colon tissue in Masson staining (FIG. 4B)” value is “noticeably decrease”. Further, in assay [2], the “collagenous fiber of colon tissues, Masson stained slice (FIG. 11A)” value (“collagenous fiber … (FIG. 11A)” below) is recorded as “noticeably decrease”; the “colon mucous layer Fibronectin protein expression, immunohistochemical staining (FIG. 12)” value is “clearly decreased”; the “colon tissue morphology, HE stained slice (FIG. 10)” value (“colon tissue morphology … (FIG. 10)” below) is given as “become intact”; the “blue staining area of colon tissues, area ratio of blue collagen fibers to colon tissue in Masson staining (FIG. 11B)” value was “noticeably decrease”. Further, in assay [2], the “content of serum IL-6 (FIG. 13)” value is “clearly decreases” and the “content of serum MMP-8 (FIG. 13)” value is on record as “clearly decreases”.

Consider “His-(D-Ser)-Gln-Gly-Thr-Phe-Thr-Ser-Asp-Lys(Gly-Gly-Ser-Gly-Ser-Gly-γGlu-CO(CH2)18-COOH)-Ser-Lys-Tyr-Leu-Glu-Aib-Lys-Ala-Ala-Gln-Asp-Phe-Val-Glu-Trp-Leu-Lys-Ala-Gly-Gly-Pro-Ser-Ser-Gly-Ala-Pro-Pro-Pro-Ser-NH2 (HXQGTFTSDKSKYLEXKAAQDFVEWLKAGGPSSGAPPPS; D-Ser, Aib, γGlu-C20 diacid lipidation, C-amide; Compound 14; (2)..(2) X=D-Ser; (10)..(10) A side chain of Lys is linked to -Gly-Gly-Ser-Gly-Ser-Gly-AGlu-CO(CH2)18-COOH; (16)..(16) X=Aib)”, for which, in assay [1], the “content of serum IL-6 (FIG. 7)” value was “clearly decreases”; the “content of serum MMP-12 (FIG. 7)” value is “clearly decreases”; the “collagenous fiber of colon tissues … (FIG. 4A)” value is “noticeably decrease”; the “colon Ly-6g+ cells” value was “clearly decrease”. For the same compound, the “colon mucous layer α-SMA protein expression, immunohistochemical staining (FIG. 5)” value in assay [1] is “clearly decreased”. In assay [1] (setting [4]), the “colon tissue morphology … (FIG. 3)” value is “become intact” and the “blue staining area of colon tissues, area ratio of blue collagen fibers to colon tissue in Masson staining (FIG. 4B)” value is “noticeably decrease”. Besides, in assay [2], the “collagenous fiber … (FIG. 11A)” value is “noticeably decrease”; the “colon mucous layer Fibronectin protein expression, immunohistochemical staining (FIG. 12)” value is “clearly decreased”; the “colon tissue morphology … (FIG. 10)” value is “become intact”; the “blue staining area of colon tissues, area ratio of blue collagen fibers to colon tissue in Masson staining (FIG. 11B)” value is given as “noticeably decrease”. Moreover, in assay [2], the “content of serum IL-6 (FIG. 13)” value is given as “clearly decreases” and the “content of serum MMP-8 (FIG. 13)” value is “clearly decreases”.

Turning to “His-(D-Ser)-Gln-Gly-Thr-Phe-Thr-Ser-Asp-Lys(PEG2-PEG2-γGlu-CO(CH2)18CO2H)-Ser-Lys-Tyr-Leu-Asp-Glu-Arg-Ala-Ala-Gln-Asp-Phe-Iva-Gln-Trp-Leu-Leu-Asp-Gly-Gly-Pro-Ser-Ser-Gly-Aib-Pro-Pro-Pro-Ser-NH2 (H[dS]QGTFTSDK([PEG2′-PEG2′-γGlu-C20 diacid])SKYLDERAAQDF[Iva]QWLLDGGPSSG[Aib]PPPS-NH2) [Compound 12]”, in assay [1], the “content of serum IL-6 (FIG. 7)” value is given as “clearly decreases”; the “content of serum MMP-12 (FIG. 7)” value is recorded as “clearly decreases”; the “collagenous fiber of colon tissues … (FIG. 4A)” value was “noticeably decrease”; the “colon Ly-6g+ cells” value is “clearly decrease”. The “colon mucous layer α-SMA protein expression, immunohistochemical staining (FIG. 5)” value in assay [1] is on record as “clearly decreased”. In assay [1] (setting [4]), the “colon tissue morphology … (FIG. 3)” value is “become intact” and the “blue staining area of colon tissues, area ratio of blue collagen fibers to colon tissue in Masson staining (FIG. 4B)” value is given as “noticeably decrease”. Besides, in assay [2], the “collagenous fiber … (FIG. 11A)” value is “noticeably decrease”; the “colon mucous layer Fibronectin protein expression, immunohistochemical staining (FIG. 12)” value was “clearly decreased”; the “colon tissue morphology … (FIG. 10)” value is “become intact”; the “blue staining area of colon tissues, area ratio of blue collagen fibers to colon tissue in Masson staining (FIG. 11B)” value is listed as “noticeably decrease”. For the same compound, in assay [2], the “content of serum IL-6 (FIG. 13)” value is “clearly decreases” and the “content of serum MMP-8 (FIG. 13)” value is on record as “clearly decreases”.
